Reference: PMC9851200, “Multiparameter phenotypic screening for endogenous TFEB and TFE3 translocation identifies novel chemical series modulating lysosome function” (Autophagy, 2022)
Read-outs that look alike come from different tables or passages of the source. One block for each molecule: values may come before it.

What was measured:
[1] = biological target: CSNK1E (Homo sapiens, UniProt P49674); settings: cited from earlier work
[2] = biological target: BMPR1B (Homo sapiens, UniProt O00238); settings: cited from earlier work
[3] = biological target: T1, JAK1(JH2) (Homo sapiens, UniProt P23458); settings: cited from earlier work
T1 construct: JAK1(JH2)

[4] = biological target: T2, PRKD2 (Homo sapiens, UniProt Q9BZL6); settings: cited from earlier work
T2 sequence (Q9BZL6 1-878): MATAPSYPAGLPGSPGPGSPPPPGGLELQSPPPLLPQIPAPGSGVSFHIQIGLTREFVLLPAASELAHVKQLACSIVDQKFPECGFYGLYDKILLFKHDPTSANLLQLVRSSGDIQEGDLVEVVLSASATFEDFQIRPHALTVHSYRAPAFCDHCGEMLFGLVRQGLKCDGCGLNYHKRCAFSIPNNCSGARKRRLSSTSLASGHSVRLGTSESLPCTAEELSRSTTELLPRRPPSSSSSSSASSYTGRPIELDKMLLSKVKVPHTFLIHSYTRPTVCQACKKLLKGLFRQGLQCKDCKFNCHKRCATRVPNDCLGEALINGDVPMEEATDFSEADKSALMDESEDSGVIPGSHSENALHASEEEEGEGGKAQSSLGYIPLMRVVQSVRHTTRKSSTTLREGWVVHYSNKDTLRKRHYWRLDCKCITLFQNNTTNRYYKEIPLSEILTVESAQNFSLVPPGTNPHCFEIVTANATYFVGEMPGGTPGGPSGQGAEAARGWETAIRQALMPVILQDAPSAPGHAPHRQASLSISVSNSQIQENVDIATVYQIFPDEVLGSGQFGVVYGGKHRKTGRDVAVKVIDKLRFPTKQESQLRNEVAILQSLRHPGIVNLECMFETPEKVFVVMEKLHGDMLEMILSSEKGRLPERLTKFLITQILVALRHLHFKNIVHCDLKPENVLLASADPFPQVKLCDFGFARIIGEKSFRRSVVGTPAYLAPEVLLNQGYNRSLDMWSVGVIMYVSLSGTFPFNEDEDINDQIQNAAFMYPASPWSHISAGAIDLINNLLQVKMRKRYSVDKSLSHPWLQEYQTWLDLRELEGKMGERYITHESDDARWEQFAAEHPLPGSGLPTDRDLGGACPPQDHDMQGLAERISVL

[5] = biological target: TGFBR2 (Homo sapiens, UniProt P37173); settings: cited from earlier work
[6] = biological target: CSNK1D (Homo sapiens, UniProt P48730); settings: cited from earlier work
[7] = biological target: PIKFYVE (Homo sapiens, UniProt Q9Y2I7); settings: cited from earlier work
[8] = biological target: CDC42BPB/MRCKB (Homo sapiens, UniProt Q9Y5S2); settings: cited from earlier work
[9] = biological target: T3, PRKD3 (Homo sapiens, UniProt O94806); settings: cited from earlier work
T3 sequence (O94806 1-890): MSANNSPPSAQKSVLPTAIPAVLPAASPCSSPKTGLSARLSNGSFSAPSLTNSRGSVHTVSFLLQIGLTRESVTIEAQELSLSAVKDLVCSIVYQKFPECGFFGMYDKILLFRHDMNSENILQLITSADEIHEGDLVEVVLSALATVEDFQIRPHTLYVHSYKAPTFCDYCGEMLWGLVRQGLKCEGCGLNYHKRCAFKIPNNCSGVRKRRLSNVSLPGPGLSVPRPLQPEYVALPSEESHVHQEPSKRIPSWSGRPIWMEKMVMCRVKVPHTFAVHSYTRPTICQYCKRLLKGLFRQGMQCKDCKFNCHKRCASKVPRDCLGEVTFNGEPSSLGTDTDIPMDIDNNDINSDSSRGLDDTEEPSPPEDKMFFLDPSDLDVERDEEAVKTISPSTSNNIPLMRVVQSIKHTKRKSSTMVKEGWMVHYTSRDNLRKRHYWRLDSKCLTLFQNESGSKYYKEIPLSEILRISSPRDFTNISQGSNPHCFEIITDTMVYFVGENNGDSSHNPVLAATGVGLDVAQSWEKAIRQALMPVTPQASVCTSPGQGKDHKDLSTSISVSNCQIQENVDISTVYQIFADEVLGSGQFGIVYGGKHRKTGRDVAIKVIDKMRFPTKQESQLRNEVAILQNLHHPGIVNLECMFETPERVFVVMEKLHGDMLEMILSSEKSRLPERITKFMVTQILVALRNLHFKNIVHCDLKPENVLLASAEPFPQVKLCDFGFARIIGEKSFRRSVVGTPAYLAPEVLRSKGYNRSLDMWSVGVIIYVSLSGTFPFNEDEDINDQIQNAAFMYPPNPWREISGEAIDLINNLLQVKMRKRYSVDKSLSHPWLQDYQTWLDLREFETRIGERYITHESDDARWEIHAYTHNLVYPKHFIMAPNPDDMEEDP

[10] = biological target: CDC42BPG/DMPK2 (Homo sapiens, UniProt Q6DT37); settings: cited from earlier work
[11] = biological target: MTOR (Homo sapiens, UniProt P42345); settings: cited from earlier work
[12] = biological target: T4, PRKD1 (Homo sapiens, UniProt Q15139); settings: cited from earlier work
T4 sequence (Q15139 1-912): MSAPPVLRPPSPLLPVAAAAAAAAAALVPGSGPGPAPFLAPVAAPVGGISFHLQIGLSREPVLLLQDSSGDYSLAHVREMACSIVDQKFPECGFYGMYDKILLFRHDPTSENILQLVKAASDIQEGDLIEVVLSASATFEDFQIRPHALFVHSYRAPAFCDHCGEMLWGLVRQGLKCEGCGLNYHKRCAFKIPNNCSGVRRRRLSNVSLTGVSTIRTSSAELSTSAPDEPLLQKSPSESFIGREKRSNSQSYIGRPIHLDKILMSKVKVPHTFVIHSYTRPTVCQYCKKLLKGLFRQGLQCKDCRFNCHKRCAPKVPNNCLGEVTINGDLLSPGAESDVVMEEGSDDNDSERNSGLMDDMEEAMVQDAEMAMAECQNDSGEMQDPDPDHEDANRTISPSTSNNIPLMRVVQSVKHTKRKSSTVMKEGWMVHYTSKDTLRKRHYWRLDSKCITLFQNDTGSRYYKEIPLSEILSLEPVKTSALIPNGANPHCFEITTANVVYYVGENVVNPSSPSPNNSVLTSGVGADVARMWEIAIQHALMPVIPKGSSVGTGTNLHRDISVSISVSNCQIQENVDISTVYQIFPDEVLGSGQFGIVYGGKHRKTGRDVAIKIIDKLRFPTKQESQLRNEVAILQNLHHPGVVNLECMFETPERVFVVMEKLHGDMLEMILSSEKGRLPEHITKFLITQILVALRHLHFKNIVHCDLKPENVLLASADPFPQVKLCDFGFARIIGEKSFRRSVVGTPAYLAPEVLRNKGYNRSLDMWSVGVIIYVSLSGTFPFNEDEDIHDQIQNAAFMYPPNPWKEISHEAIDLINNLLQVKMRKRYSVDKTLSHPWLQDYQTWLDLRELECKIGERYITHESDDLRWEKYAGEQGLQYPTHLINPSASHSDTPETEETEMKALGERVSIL

[13] = biological target: T5, ACVR1B (Homo sapiens, UniProt P36896); settings: cited from earlier work
T5 sequence (P36896 24-505): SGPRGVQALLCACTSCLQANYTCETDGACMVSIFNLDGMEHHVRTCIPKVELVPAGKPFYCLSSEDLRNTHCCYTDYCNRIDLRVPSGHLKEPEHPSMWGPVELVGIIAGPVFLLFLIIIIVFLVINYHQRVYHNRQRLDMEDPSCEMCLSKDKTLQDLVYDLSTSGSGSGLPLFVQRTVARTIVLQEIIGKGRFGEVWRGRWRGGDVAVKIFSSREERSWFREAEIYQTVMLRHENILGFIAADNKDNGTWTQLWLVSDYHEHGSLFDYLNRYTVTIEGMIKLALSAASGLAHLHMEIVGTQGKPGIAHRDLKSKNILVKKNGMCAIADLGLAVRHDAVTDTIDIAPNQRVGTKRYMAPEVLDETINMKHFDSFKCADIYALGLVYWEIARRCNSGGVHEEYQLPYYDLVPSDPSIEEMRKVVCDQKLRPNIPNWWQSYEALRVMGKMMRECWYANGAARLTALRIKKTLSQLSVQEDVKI

[14] = biological target: CIT (Homo sapiens, UniProt O14578); settings: cited from earlier work
[15] = biological target: T6, TGFBR1 (Homo sapiens, UniProt P36897); assay: TGFBR1 binding KD (Table S3); settings: read-out: TGFBR1 KD
T6 sequence (P36897 34-503): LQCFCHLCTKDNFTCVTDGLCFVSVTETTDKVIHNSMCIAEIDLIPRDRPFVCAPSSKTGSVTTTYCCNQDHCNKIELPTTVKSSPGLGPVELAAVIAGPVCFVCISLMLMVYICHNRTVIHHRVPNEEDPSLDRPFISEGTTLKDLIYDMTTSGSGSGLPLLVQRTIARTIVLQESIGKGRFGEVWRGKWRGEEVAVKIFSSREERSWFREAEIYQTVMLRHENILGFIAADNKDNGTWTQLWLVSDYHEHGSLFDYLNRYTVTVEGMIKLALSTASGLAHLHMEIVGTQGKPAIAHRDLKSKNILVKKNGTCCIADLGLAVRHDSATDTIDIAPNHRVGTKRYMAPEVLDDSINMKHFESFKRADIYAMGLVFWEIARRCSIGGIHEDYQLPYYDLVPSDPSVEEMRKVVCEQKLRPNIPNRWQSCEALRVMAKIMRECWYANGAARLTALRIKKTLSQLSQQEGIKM
Description: (§1) Supplement KAUP_A_2095834_SM5251.zip/Supplementary Tables R7.xlsx, sheet "Table S3 - Analogues"

[16] = system: endogenous TFE3; assay: TFE3 nuclear translocation, immunocytochemistry high-content imaging; format: cell-based; settings: for EC50 / Best-Fit Values Span: 24 h, SH-SY5Y; for EC50: read-out: Best-Fit Values EC50 (converted); for Summary: activity in TFE3 assays compared with original NK-140, OT activity; for Best-Fit Values Span: TFE3 assay concentration response
[17] = biological target: T4, PRKD1; assay: PRKD1 binding KD (Table S3); settings: relation sign
Description: as §1

[18] = system: SH-SY5Y cells; assay: Chemotype enrichment analysis of PKIS2 primary screen hit categories
[19] = system: SH-SY5Y cells; settings: human, SH-SY5Y cells, 24 h, 1 µM
[20] = system: SH-SY5Y cells; settings: human, SH-SY5Y cells, 24 h, 1 µM; remark: listed apart in the source
[21] = system: endogenous TFEB; assay: TFEB nuclear translocation, immunocytochemistry high-content imaging; format: cell-based
[22] = system: SH-SY5Y cells
[23] = TFE3 assay, second EC50 of biphasic/bell-shaped fit or OT (off-target) activity, unit inferred

T1 sequence (P23458 583-855 limits assumed): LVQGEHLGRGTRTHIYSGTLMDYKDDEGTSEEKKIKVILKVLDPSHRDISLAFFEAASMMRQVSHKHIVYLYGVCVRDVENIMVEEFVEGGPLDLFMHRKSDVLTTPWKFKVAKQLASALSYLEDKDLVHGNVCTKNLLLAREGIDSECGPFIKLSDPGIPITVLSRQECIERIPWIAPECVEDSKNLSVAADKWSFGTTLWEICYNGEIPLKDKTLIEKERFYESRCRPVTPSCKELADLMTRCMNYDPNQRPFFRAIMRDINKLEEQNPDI
Chain of BMPR1B (O00238 14-502): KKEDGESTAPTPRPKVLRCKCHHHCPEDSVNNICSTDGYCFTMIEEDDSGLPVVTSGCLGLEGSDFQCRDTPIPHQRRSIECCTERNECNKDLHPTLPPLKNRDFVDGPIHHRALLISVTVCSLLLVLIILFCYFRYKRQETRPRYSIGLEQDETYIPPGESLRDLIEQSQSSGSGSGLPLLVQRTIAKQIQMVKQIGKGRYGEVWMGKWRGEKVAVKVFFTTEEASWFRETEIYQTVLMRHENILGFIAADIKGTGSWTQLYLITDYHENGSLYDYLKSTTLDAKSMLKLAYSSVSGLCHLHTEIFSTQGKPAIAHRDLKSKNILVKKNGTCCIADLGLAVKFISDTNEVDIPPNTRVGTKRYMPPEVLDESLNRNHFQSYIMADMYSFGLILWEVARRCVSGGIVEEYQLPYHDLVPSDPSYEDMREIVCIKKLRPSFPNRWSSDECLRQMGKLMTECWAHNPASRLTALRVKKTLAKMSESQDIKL
Chain of CSNK1D (P48730 whole entry): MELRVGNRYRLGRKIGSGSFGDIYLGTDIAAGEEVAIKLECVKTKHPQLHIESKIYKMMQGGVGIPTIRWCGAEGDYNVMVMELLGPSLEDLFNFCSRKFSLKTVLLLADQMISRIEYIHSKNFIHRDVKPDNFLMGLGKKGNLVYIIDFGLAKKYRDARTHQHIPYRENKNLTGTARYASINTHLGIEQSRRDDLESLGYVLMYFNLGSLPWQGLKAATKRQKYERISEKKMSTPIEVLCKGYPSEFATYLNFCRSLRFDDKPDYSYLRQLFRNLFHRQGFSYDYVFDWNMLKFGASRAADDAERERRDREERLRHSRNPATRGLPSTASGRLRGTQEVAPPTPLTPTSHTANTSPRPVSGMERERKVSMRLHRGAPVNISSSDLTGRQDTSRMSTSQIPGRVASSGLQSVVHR
Chain of CSNK1E (P49674 whole entry): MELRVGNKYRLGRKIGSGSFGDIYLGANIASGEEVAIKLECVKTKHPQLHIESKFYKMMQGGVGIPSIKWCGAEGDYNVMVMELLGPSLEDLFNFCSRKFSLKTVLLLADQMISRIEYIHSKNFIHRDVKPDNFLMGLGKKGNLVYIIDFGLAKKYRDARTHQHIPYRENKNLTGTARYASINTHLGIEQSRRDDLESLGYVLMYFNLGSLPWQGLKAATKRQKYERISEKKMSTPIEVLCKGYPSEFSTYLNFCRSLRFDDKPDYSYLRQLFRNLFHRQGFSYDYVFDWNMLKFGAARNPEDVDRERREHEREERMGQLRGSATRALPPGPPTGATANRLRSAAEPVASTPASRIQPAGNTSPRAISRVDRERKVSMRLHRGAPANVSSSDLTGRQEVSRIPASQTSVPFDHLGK
Chain of PIKFYVE (Q9Y2I7 whole entry): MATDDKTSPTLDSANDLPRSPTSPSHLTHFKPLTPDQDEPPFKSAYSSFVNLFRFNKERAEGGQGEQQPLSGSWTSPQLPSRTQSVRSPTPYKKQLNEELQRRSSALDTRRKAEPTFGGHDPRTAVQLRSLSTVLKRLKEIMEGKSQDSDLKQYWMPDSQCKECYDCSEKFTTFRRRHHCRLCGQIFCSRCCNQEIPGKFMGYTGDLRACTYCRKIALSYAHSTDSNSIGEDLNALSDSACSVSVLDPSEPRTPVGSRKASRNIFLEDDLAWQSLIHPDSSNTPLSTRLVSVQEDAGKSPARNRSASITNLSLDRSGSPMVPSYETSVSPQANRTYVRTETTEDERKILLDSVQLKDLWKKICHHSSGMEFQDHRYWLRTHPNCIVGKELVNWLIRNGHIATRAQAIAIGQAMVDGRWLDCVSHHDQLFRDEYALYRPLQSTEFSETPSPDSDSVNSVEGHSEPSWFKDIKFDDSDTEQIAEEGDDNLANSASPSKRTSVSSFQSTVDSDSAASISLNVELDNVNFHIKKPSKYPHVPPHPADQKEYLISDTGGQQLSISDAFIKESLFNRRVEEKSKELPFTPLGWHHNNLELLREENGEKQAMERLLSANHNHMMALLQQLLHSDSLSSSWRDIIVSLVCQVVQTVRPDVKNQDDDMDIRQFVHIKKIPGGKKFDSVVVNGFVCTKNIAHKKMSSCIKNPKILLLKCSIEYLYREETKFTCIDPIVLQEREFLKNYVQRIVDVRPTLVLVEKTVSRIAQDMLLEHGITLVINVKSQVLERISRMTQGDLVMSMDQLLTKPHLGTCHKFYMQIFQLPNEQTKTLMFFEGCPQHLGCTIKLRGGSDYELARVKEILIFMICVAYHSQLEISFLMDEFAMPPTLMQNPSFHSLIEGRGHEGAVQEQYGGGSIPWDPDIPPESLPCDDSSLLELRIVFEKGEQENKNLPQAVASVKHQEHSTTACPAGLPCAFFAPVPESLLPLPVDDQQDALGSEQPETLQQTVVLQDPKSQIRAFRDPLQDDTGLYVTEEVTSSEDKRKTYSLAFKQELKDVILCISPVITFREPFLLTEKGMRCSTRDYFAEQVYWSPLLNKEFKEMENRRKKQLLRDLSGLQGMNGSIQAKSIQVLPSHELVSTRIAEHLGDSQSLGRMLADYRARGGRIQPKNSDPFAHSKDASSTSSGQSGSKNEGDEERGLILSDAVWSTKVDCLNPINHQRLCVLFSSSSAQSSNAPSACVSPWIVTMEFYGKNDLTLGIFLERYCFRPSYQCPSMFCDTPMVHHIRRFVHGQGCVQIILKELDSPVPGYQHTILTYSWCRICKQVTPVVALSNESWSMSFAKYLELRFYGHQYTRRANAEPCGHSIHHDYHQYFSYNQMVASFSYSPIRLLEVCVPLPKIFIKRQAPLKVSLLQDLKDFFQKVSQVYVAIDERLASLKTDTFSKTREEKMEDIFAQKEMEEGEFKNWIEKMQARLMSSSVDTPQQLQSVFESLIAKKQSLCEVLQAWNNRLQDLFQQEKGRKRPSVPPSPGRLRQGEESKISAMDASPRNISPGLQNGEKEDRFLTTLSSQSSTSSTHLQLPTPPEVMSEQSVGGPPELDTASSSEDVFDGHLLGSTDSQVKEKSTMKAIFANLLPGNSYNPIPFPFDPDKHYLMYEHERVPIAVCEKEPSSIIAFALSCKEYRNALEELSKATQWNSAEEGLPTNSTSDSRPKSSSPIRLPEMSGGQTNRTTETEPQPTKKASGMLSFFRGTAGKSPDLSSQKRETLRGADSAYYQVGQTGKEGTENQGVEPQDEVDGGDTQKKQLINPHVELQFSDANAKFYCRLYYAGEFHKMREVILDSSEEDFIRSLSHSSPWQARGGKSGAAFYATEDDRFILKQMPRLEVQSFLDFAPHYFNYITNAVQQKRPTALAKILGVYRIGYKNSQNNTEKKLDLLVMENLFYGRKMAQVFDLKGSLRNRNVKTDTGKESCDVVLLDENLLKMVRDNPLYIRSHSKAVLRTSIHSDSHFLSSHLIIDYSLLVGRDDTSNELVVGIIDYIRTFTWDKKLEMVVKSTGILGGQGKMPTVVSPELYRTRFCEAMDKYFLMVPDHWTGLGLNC
Chain of TGFBR2 (P37173 23-567): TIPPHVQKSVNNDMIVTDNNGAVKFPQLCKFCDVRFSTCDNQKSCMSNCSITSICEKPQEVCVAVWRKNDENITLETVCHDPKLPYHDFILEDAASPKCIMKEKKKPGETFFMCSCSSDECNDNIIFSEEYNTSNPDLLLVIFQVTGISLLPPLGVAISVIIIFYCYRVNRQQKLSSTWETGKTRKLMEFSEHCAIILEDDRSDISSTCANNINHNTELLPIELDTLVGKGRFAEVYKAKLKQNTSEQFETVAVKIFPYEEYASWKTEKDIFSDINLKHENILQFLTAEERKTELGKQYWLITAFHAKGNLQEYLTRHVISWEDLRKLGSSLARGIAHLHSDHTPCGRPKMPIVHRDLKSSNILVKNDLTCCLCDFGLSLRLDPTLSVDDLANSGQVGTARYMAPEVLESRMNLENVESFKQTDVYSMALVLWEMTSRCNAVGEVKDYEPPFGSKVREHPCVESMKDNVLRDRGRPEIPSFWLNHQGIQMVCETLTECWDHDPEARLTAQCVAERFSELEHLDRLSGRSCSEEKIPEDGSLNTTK

SMILES: Cc1cccc(-c2nc(Nc3ccc4[nH]ncc4c3)c3ccccc3n2)n1 [GW857175]
- KINOMEscan binding CSNK1E [1]: 28%
- KINOMEscan binding BMPR1B [2]: 34%
- KINOMEscan binding JAK1(JH2) [3]: 83%
- KINOMEscan binding PRKD2 [4]: 99.9%
- KINOMEscan binding TGFBR2 [5]: 0%
- KINOMEscan binding CSNK1D [6]: 28%
- KINOMEscan binding PIKFYVE [7]: 85%
- KINOMEscan binding CDC42BPB/MRCKB [8]: 72%
- KINOMEscan binding PRKD3 [9]: 98.1%
- KINOMEscan binding CDC42BPG/DMPK2 [10]: 72%
- KINOMEscan binding MTOR [11]: 0%
- KINOMEscan binding PRKD1 [12]: 99.8%
- KINOMEscan binding ACVR1B [13]: 100%
- KINOMEscan binding CIT [14]: 9%

SMILES: Cc1cccc(-c2nc(Nc3ccc4nc(C)sc4c3)c3ccccc3n2)n1 [NK165]
- Kd [15]: > 10 µM
- EC50 [16, 23]: 3.8 µM
- EC50 ([16]; TFE3 assay, µM): 0.58 µM
- Summary [16]: Stronger, Some OT activity

SMILES: COc1ccc(Nc2nc(-c3cccc(C)n3)nc3ccccc23)cc1 [NK170]
- EC50 ([16]; Homo sapiens): 0.85 µM
- EC50 ([16]; Homo sapiens, TFE3 assay, µM): 0.83 µM
- Summary [16]: Weaker, Strong OT activity
- Kd [17]: 0.78 µM

SMILES: Cc1cccc(-c2nc(Nc3ccc4ccsc4c3)c3ccccc3n2)n1 [NK219]
- EC50 ([16]; Homo sapiens): 2.51 µM
- EC50 ([16]; Homo sapiens, TFE3 assay, µM): 2.5 µM
- Best-Fit Values Span [16]: 44.67
- Summary [16]: Weaker, Strong OT activity
- Kd [17]: 0.65 µM

SMILES: Cc1cccc(-c2nc(Oc3ccc4scnc4c3)c3ccccc3n2)n1 [NK220]
- Kd [15]: > 10 µM
- Best-Fit Values Span [16]: 0.80
- Summary [16]: Inactive

SMILES: Cc1cccc(-c2nc(Nc3ccc4nnn(C)c4c3)c3ccccc3n2)n1 [NK222]
- Kd [15]: > 10 µM
- EC50 [16, 23]: 3.12 µM
- EC50 ([16]; TFE3 assay, µM): 0.22 µM
- Summary [16]: Stronger, Some OT activity

SMILES: Cc1cccc(-c2nc(Nc3ccc4nn(C)nc4c3)c3ccccc3n2)n1 [NK223]
- Kd [15]: > 10 µM
- Best-Fit Values Span [16]: 88.41
- EC50 [16, 23]: 1.34 µM
- Summary [16]: Only OT activity

- Nuclear Count [19]: 77.10
- AK [20]: 102.75
SMILES: COc1ccc(C2=C(Nc3cccc(O)c3)C(=O)NC2=O)cc1 [UNC10225299A]
- Outcome [18]: DQ Only
- TFEB % [21]: 8.50%
- DQ Intensity [22]: 174.21
- DQ Spot [22]: 115.16
- TFE3 % [16]: 15.17%

- Nuclear Count [19]: 106.99
- AK [20]: 108.76
SMILES: Fc1ccc(-c2ncn(C3CCNCC3)c2-c2ccnc(Oc3ccc(-c4ccccc4)cc3)n2)cc1 [UNC10225377A]
- Outcome [18]: TFE3 + DQ Int
- TFEB % [21]: 13.41%
- DQ Intensity [22]: 170.99
- DQ Spot [22]: 76.67
- TFE3 % [16]: 24.21%
